The results in this text go back to patent US12421254B2, “KRAS modulators and uses thereof” (Quanta Therapeutics, Inc., priority 2023, dated 2025).

Experiment [1] has as its target GST-tagged KRAS-G12V (2-169) (Homo sapiens, UniProt P01116, G12V). Briefly: Nucleotide exchange assay (NEA), SOS-mediated, HTRF, KRAS G12V. Format: biochemical. Particulars: Table 4; IC50 extracted at 90 min; 80 nM SOS. In short, it runs like this:
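GST-KRAS-G12V (2-169), 0.25 nM, pre-incubated 1 h at RT with compound, then SOS1cat (564-1049) 80 nM and GTP-DY-647P1 150 nM added in HEPES pH 7.3 buffer with MgCl2 and DTT. HTRF via anti-GST Tb cryptate read over 90 min; IC50 from 4-parameter fit at 90 min, blanked to no-SOS reactions.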
(In general: Time-resolved FRET reads energy transfer from a long-lived donor to a nearby acceptor.)

In experiment [2] the target is GST-tagged KRAS-G12D (2-169) (Homo sapiens, UniProt P01116, G12D). Description: Nucleotide exchange assay (NEA), SOS-mediated, HTRF, KRAS G12D. Format: biochemical. The following applies: Table 4; IC50 extracted at 30 min; 20 nM SOScat; read-out: NEA G12D IC50. In short, it runs like this: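 Compound preincubated 1 h at RT with 0.25 nM GST-KRAS-G12D (2-169) and anti-GST Tb donor, then 20 nM SOS1cat (564-1049) and 150 nM GTP-DY-647P1 added; pH 7.3 HEPES buffer with MgCl2 and DTT. HTRF monitored at RT; % inhibition versus DMSO and no-SOS blank, 4-parameter IC50 taken at 30 min.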
GST-tagged KRAS-G12D (2-169), sequence (P01116 2-169 isoform P01116-2 G12D): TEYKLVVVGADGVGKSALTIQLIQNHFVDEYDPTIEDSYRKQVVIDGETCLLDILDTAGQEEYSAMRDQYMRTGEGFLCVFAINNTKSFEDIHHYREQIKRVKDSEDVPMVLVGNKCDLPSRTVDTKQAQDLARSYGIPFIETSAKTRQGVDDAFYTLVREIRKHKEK

GST-tagged KRAS-G12V (2-169), sequence (P01116 2-169 isoform P01116-2 G12V): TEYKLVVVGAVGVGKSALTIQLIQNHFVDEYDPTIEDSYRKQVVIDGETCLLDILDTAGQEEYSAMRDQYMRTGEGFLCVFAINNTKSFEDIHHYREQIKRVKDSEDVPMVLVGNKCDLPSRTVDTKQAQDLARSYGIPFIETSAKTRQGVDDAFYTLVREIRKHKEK

One may read the IC50 as the concentration needed to halve the response being measured. As to `C[C@H](c1cccnc1N)N(C)c1nc(OC[C@@]23CCCN2C[C@H](F)C3)nc(N2CCC3(CCc4sc(N)c(C#N)c43)C2)n1` (stereo partly drawn) [Compound 195, 2-amino-1′-[4-[methyl-[(1R)-1-(2-amino-3-pyridyl)ethyl]amino]-6-[[(2R,8S)-2-fluoro-1,2,3,5,6,7-hexahydropyrrolizin-8-yl]methoxy]-1,3,5-triazin-2-yl]spiro[5,6-dihydrocyclopenta[b]thiophene-4,3′-pyrrolidine]-3-carbonitrile], the IC50 in experiment [1] was less than 10 nM; in experiment [2], 10 to 100 nM.
The matching figures for `C[C@H](c1cccnc1N)N(CC(F)F)c1nc(OC[C@@H]2C[C@@H](F)CN2C)nc(N2CC3(C2)SCc2sc(N)c(C#N)c23)n1` [Compound 197, 2′-amino-1-(4-(((R)-1-(2-aminopyridin-3-yl)ethyl)(2,2-difluoroethyl)amino)-6-(((2S,4R)-4-fluoro-1-methylpyrrolidin-2-yl)methoxy)-1,3,5-triazin-2-yl)-6′H-spiro[azetidine-3,4′-thieno[3,4-b]thiophene]-3′-carbonitrile]: less than 10 nM and less than 10 nM.
Regarding `CCN(c1nc(OCC2(CN(C)C)CC2(F)F)nc(N2CC3(C2)SCc2sc(N)c(C#N)c23)n1)[C@H](C)c1cccnc1N` (stereo partly drawn) [Compound 198, 2-amino-1′-[4-[[(1R)-1-(2-amino-3-pyridyl)ethyl]-ethyl-amino]-6-[[1-[(dimethylamino)methyl]-2,2-difluoro-cyclopropyl]methoxy]-1,3,5-triazin-2-yl]spiro[6H-thieno[3,4-b]thiophene-4,3′-azetidine]-3-carbonitrile], the IC50 in experiment [1] and in experiment [2] was less than 10 nM each time.
Take `C[C@H](c1cccnc1N)N(CC(N)=O)c1nc(OC[C@@]23CCCN2C[C@H](F)C3)nc(N2CC3(C2)SCc2sc(N)c(C#N)c23)n1` [Compound 199, 2-[[4-(2-amino-3-cyano-spiro[6H-thieno[3,4-b]thiophene-4,3′-azetidine]-1′-yl)-6-[[(2R,8S)-2-fluoro-1,2,3,5,6,7-hexahydropyrrolizin-8-yl]methoxy]-1,3,5-triazin-2-yl]-[(1R)-1-(2-amino-3-pyridyl)ethyl]amino]acetamide]: the half-maximal inhibitory concentration (IC50) in experiment [1] and in experiment [2] was less than 10 nM in each case.
For `CC(c1cccnc1C(F)F)N(C)c1nc(OC[C@@]23CCCN2C[C@H](F)C3)nc(N2CC3(C2)SCc2sc(N)c(C#N)c23)n1` (stereo partly drawn) [Compound 205, 2-amino-1′-[4-[1-[2-(difluoromethyl)-3-pyridyl]ethyl-methyl-amino]-6-[[(2R,8S)-2-fluoro-1,2,3,5,6,7-hexahydropyrrolizin-8-yl]methoxy]-1,3,5-triazin-2-yl]spiro[6H-thieno[3,4-b]thiophene-4,3′-azetidine]-3-carbonitrile], the IC50 lay within 100 to 1000 nM in experiment [1] and 1000 to 20000 nM in experiment [2].
On to `CCN(c1nc(OCC2(CO)CCCN2)nc(N2CC3(C2)SCc2sc(N)c(C#N)c23)n1)[C@H](C)c1cccnc1N` (stereo partly drawn) [Compound 208, 2-amino-1′-[4-[[(1R)-1-(2-amino-3-pyridyl)ethyl]-ethyl-amino]-6-[[2-(hydroxymethyl)pyrrolidin-2-yl]methoxy]-1,3,5-triazin-2-yl]spiro[6H-thieno[3,4-b]thiophene-4,3′-azetidine]-3-carbonitrile], for which the IC50 in experiment [1] and in experiment [2] was less than 10 nM in each case.
Turning to `CCN(c1nc(OC[C@@]23CCCN2C[C@H](F)C3)nc(N2CC3(C2)c2c(sc(N)c2C#N)C2CC23)n1)[C@H](C)c1cccnc1N` (stereo partly drawn) [Compound 212, 8-amino-1′-[4-[[(1R)-1-(2-amino-3-pyridyl)ethyl]-ethyl-amino]-6-[[(2R,8S)-2-fluoro-1,2,3,5,6,7-hexahydropyrrolizin-8-yl]methoxy]-1,3,5-triazin-2-yl]spiro[9-thiatricyclo[4.3.0.02,4]nona-1(6),7-diene-5,3′-azetidine]-7-carbonitrile], the IC50 in experiment [1] and in experiment [2] was less than 10 nM throughout.
In the case of `CCN(c1nc(OC[C@]23CC[C@H](CN(C)C2)N3)nc(N2CC3(C2)SCc2sc(N)c(C#N)c23)n1)[C@H](C)c1cccnc1N` [Compound 214, 2′-amino-1-(4-(((R)-1-(2-aminopyridin-3-yl)ethyl)(ethyl)amino)-6-(((1S,5R)-3-methyl-3,8-diazabicyclo[3.2.1]octan-1-yl)methoxy)-1,3,5-triazin-2-yl)-6′H-spiro[azetidine-3,4′-thieno[3,4-b]thiophene]-3′-carbonitrile], the IC50 in experiment [1] and in experiment [2] was less than 10 nM throughout.
For the compound `CN(CC(=O)NC(=N)N)c1nc(OC[C@@]23CCCN2C[C@H](F)C3)nc(N2CC3(C2)SCc2sc(N)c(C#N)c23)n1` [Compound 215, 2-[[4-(2-amino-3-cyano-spiro[6H-thieno[3,4-b]thiophene-4,3′-azetidine]-1′-yl)-6-[[(2R,8S)-2-fluoro-1,2,3,5,6,7-hexahydropyrrolizin-8-yl]methoxy]-1,3,5-triazin-2-yl]-methyl-amino]-N-carbamimidoyl-acetamide], the 50% inhibitory concentration (IC50) in experiment [1] and in experiment [2] was 100 to 1000 nM each time.
In the case of `N#Cc1c(N)sc2c1C1(CN(c3nc(OC[C@@]45CCCN4C[C@H](F)C5)nc(N(Cc4cccnc4N)C4COC4)n3)C1)SC2` [Compound 217, 2-amino-1′-[4-[(2-amino-3-pyridyl)methyl-(oxetan-3-yl)amino]-6-[[(2R,8S)-2-fluoro-1,2,3,5,6,7-hexahydropyrrolizin-8-yl]methoxy]-1,3,5-triazin-2-yl]spiro[6H-thieno[3,4-b]thiophene-4,3′-azetidine]-3-carbonitrile], the IC50 in experiment [1] lay within 100 to 1000 nM; in experiment [2] it was 1000 to 20000 nM.
For `CCN(c1nc(OCC23CCC(CN(C)C2)N3C)nc(N2CC3(C2)SCc2sc(N)c(C#N)c23)n1)[C@H](C)c1cccnc1N` (stereo partly drawn) [Compound 218, 2′-amino-1-(4-(((R)-1-(2-aminopyridin-3-yl)ethyl)(ethyl)amino)-6-((3,8-dimethyl-3,8-diazabicyclo[3.2.1]octan-1-yl)methoxy)-1,3,5-triazin-2-yl)-6′H-spiro[azetidine-3,4′-thieno[3,4-b]thiophene]-3′-carbonitrile], the IC50 in experiment [1] is less than 10 nM; in experiment [2], 10 to 100 nM.
`C[C@H](c1cccnc1N)N(CC(F)F)c1nc(OCC2(CN(C)C)CC2(F)F)nc(N2CC3(C2)SCc2sc(N)c(C#N)c23)n1` (stereo partly drawn) [Compound 220, 2-amino-1′-[4-[[(1R)-1-(2-amino-3-pyridyl)ethyl]-(2,2-difluoroethyl)amino]-6-[[1-[(dimethylamino)methyl]-2,2-difluoro-cyclopropyl]methoxy]-1,3,5-triazin-2-yl]spiro[6H-thieno[3,4-b]thiophene-4,3′-azetidine]-3-carbonitrile]: the IC50 in experiment [1] and in experiment [2] was less than 10 nM each time.
For the compound `CCN(c1nc(OC[C@]2(C(F)F)CCCN2)nc(N2CC3(C2)SCc2sc(N)c(C#N)c23)n1)[C@H](C)c1cccnc1N` [Compound 221, 2-amino-1′-[4-[[(1R)-1-(2-amino-3-pyridyl)ethyl]-ethyl-amino]-6-[[(2S)-2-(difluoromethyl)pyrrolidin-2-yl]methoxy]-1,3,5-triazin-2-yl]spiro[6H-thieno[3,4-b]thiophene-4,3′-azetidine]-3-carbonitrile], the IC50 in experiment [1] and in experiment [2] was less than 10 nM throughout.
As for `CCN(c1nc(OCC2(COC)CCCC2)nc(N2CC3(C2)SCc2sc(N)c(C#N)c23)n1)[C@H](C)c1cccnc1N` [Compound 222, 2-amino-1′-[4-[[(1R)-1-(2-amino-3-pyridyl)ethyl]-ethyl-amino]-6-[[1-(methoxymethyl)cyclopentyl]methoxy]-1,3,5-triazin-2-yl]spiro[6H-thieno[3,4-b]thiophene-4,3′-azetidine]-3-carbonitrile], the IC50 in experiment [1] is 100 to 1000 nM; in experiment [2], 1000 to 20000 nM.
The corresponding values for `CC(c1ccc[n+]([O-])c1)N(C)c1nc(OC[C@@]23CCCN2C[C@H](F)C3)nc(N2CC3(C2)SCc2sc(N)c(C#N)c23)n1` (stereo partly drawn) [Compound 224, 3-(1-((4-(2′-amino-3′-cyano-6′H-spiro[azetidine-3,4′-thieno[3,4-b]thiophen]-1-yl)-6-(((2R,7aS)-2-fluorotetrahydro-1H-pyrrolizin-7a(5H)-yl)methoxy)-1,3,5-triazin-2-yl)(methyl)amino)ethyl)pyridine 1-oxide] are 10 to 100 nM and 10 to 100 nM.
`CCN(c1nc(OCC2(CN(C)C)CCCN2)nc(N2CC3(C2)SCc2sc(N)c(C#N)c23)n1)[C@H](C)c1cccnc1N` (stereo partly drawn) [Compound 225, 2-amino-1′-[4-[[(1R)-1-(2-amino-3-pyridyl)ethyl]-ethyl-amino]-6-[[2-[(dimethylamino)methyl]pyrrolidin-2-yl]methoxy]-1,3,5-triazin-2-yl]spiro[6H-thieno[3,4-b]thiophene-4,3′-azetidine]-3-carbonitrile]: the IC50 was less than 10 nM in experiment [1] and 10 to 100 nM in experiment [2].
The matching figures for `CCN(c1nc(OC[C@@]23CCCN2C[C@H](F)C3)nc(N2CC3(C2)c2c(sc(N)c2C#N)CN3CC(F)F)n1)[C@H](C)c1cccnc1N` [Compound 227, 2-amino-1′-[4-[[(1R)-1-(2-amino-3-pyridyl)ethyl]-ethyl-amino]-6-[[(2R,8S)-2-fluoro-1,2,3,5,6,7-hexahydropyrrolizin-8-yl]methoxy]-1,3,5-triazin-2-yl]-5-(2,2-difluoroethyl)spiro[6H-thieno[2,3-c]pyrrole-4,3′-azetidine]-3-carbonitrile]: 10 to 100 nM and 100 to 1000 nM.
